The text below walks through data of ChEMBL document CHEMBL1681728, “An automated, polymer-assisted strategy for the preparation of urea and thiourea derivatives of 15-membered azalides as potential antimalarial chemotherapeutics” (Bioorg Med Chem, 2011).

The term IC50 denotes the point on the concentration scale where inhibition reaches its midpoint.

Each structure is given as a SMILES string.

Holding throughout (format): functional, organism-based
In assay [1] the test system is Plasmodium falciparum. Nature of the assay: Antimalarial activity against chloroquine-sensitive Plasmodium falciparum D6 assessed as inhibition of [3H]hypoxanthine incorporation after 96 hrs by microtiter plate scintillation counting.
In assay [2] the test system is Plasmodium falciparum. Nature of the assay: Antimalarial activity against chloroquine-,pyrimethamine-resistant Plasmodium falciparum W2 assessed as inhibition of [3H]hypoxanthine incorporation after 96 hrs by microtiter plate scintillation counting.
Assay [3] relates to Plasmodium falciparum. Put plainly: Antimalarial activity against multidrug-resistant Plasmodium falciparum TM91C235 assessed as inhibition of [3H]hypoxanthine incorporation after 96 hrs by microtiter plate scintillation counting.

Turning to `CC[C@H]1OC(=O)[C@H](C)[C@@H](O[C@H]2C[C@@](C)(OC)[C@@H](O)[C@H](C)O2)[C@H](C)[C@@H](O[C@@H]2O[C@H](C)C[C@H](N(C)C)[C@H]2O)[C@](C)(O)C[C@@H](C)CN(CCCNC(=O)Nc2ccc3c(c2)CCC3)[C@H](C)[C@@H](O)[C@]1(C)O`, the concentration for half-maximal inhibition (IC50) came out at 266 nM in assay [1], 73.6 nM in assay [2] and 96.2 nM in assay [3].

For the compound `CC[C@H]1OC(=O)[C@H](C)[C@@H](O[C@H]2C[C@@](C)(OC)[C@@H](O)[C@H](C)O2)[C@H](C)[C@@H](O[C@@H]2O[C@H](C)C[C@H](N(C)C)[C@H]2O)[C@](C)(O)C[C@@H](C)CN(CCCNC(=O)Nc2cccs2)[C@H](C)[C@@H](O)[C@]1(C)O`, the IC50 stood at 964 nM in assay [1], 721 nM in assay [2] and 549 nM in assay [3].

Consider `CC[C@H]1OC(=O)[C@H](C)[C@@H](O[C@H]2C[C@@](C)(OC)[C@@H](O)[C@H](C)O2)[C@H](C)[C@@H](O[C@@H]2O[C@H](C)C[C@H](N(C)C)[C@H]2O)[C@](C)(O)C[C@@H](C)CN(CCCNC(=O)Nc2ccc3c(c2)OCCCO3)[C@H](C)[C@@H](O)[C@]1(C)O`, for which the IC50 turned out to be 28.1 nM in assay [1], 40.8 nM in assay [2] and 60 nM in assay [3].

Take `CC[C@H]1OC(=O)[C@H](C)[C@@H](O[C@H]2C[C@@](C)(OC)[C@@H](O)[C@H](C)O2)[C@H](C)[C@@H](O[C@@H]2O[C@H](C)C[C@H](N(C)C)[C@H]2O)[C@](C)(O)C[C@@H](C)CN(CCCNC(=O)Nc2ccc(Cl)cc2)[C@H](C)[C@@H](O)[C@]1(C)O`: the values for the IC50 in assay [1], in assay [2] and in assay [3] were 188 nM, 99.3 nM and 90.4 nM, respectively.

With `CC[C@H]1OC(=O)[C@H](C)[C@@H](O[C@H]2C[C@@](C)(OC)[C@@H](O)[C@H](C)O2)[C@H](C)[C@@H](O[C@@H]2O[C@H](C)C[C@H](N(C)C)[C@H]2O)[C@](C)(O)C[C@@H](C)CN(CCCNC(=S)Nc2ccc(Oc3ccccc3)nc2)[C@H](C)[C@@H](O)[C@]1(C)O`, the concentration for half-maximal inhibition (IC50) in assay [1] came out at 215 nM; in assay [2] it was 109 nM; in assay [3], 133 nM.

As to `CC[C@H]1OC(=O)[C@H](C)[C@@H](O[C@H]2C[C@@](C)(OC)[C@@H](O)[C@H](C)O2)[C@H](C)[C@@H](O[C@@H]2O[C@H](C)C[C@H](N(C)C)[C@H]2O)[C@](C)(O)C[C@@H](C)CN(CCCNC(=S)NC(c2ccccc2)(c2ccccc2)c2ccccc2)[C@H](C)[C@@H](O)[C@]1(C)O`, the IC50 came to 125 nM in assay [1], 37 nM in assay [2] and 31.9 nM in assay [3].

Turning to `CC[C@H]1OC(=O)[C@H](C)[C@@H](O[C@H]2C[C@@](C)(OC)[C@@H](O)[C@H](C)O2)[C@H](C)[C@@H](O[C@@H]2O[C@H](C)C[C@H](N(C)C)[C@H]2O)[C@](C)(O)C[C@@H](C)CN(CCCNC(=O)Nc2cccc(SC)c2)[C@H](C)[C@@H](O)[C@]1(C)O`, the IC50 is 332 nM in assay [1], 73.9 nM in assay [2] and 137 nM in assay [3].

For the compound `CC[C@H]1OC(=O)[C@H](C)[C@@H](O[C@H]2C[C@@](C)(OC)[C@@H](O)[C@H](C)O2)[C@H](C)[C@@H](O[C@@H]2O[C@H](C)C[C@H](N(C)C)[C@H]2O)[C@](C)(O)C[C@@H](C)CN(CCCNC(=S)NC2CC2)[C@H](C)[C@@H](O)[C@]1(C)O`, the IC50 in assay [1] stood at 3720 nM; in assay [2] it was 679 nM; in assay [3], 972 nM.

As to `CC[C@H]1OC(=O)[C@H](C)[C@@H](O[C@H]2C[C@@](C)(OC)[C@@H](O)[C@H](C)O2)[C@H](C)[C@@H](O[C@@H]2O[C@H](C)C[C@H](N(C)C)[C@H]2O)[C@](C)(O)C[C@@H](C)CN(CCCNC(=O)Nc2ccc(OC)cc2)[C@H](C)[C@@H](O)[C@]1(C)O`, the IC50 was 1970 nM in assay [1], 256 nM in assay [2] and 442 nM in assay [3].

As for `CC[C@H]1OC(=O)[C@H](C)[C@@H](O[C@H]2C[C@@](C)(OC)[C@@H](O)[C@H](C)O2)[C@H](C)[C@@H](O[C@@H]2O[C@H](C)C[C@H](N(C)C)[C@H]2O)[C@](C)(O)C[C@@H](C)CN(CCCNC(=S)Nc2ccc(OCc3ccccc3)cc2)[C@H](C)[C@@H](O)[C@]1(C)O`, the IC50 in assay [1] turned out to be 249 nM; in assay [2], 88.9 nM; in assay [3], 160 nM.

Take `CC[C@H]1OC(=O)[C@H](C)[C@@H](O[C@H]2C[C@@](C)(OC)[C@@H](O)[C@H](C)O2)[C@H](C)[C@@H](O[C@@H]2O[C@H](C)C[C@H](N(C)C)[C@H]2O)[C@](C)(O)C[C@@H](C)CN(CCCNC(=O)NCC2CCCCC2)[C@H](C)[C@@H](O)[C@]1(C)O`: the IC50 is 610 nM in assay [1], 113 nM in assay [2] and 142 nM in assay [3].

Turning to `CC[C@H]1OC(=O)[C@H](C)[C@@H](O[C@H]2C[C@@](C)(OC)[C@@H](O)[C@H](C)O2)[C@H](C)[C@@H](O[C@@H]2O[C@H](C)C[C@H](N(C)C)[C@H]2O)[C@](C)(O)C[C@@H](C)CN(CCCNC(=O)Nc2ccc(OC)c(OC3CCCC3)c2)[C@H](C)[C@@H](O)[C@]1(C)O`, the 50% inhibitory concentration (IC50) was 445 nM in assay [1], 201 nM in assay [2] and 138 nM in assay [3].

With `CC[C@H]1OC(=O)[C@H](C)[C@@H](O[C@H]2C[C@@](C)(OC)[C@@H](O)[C@H](C)O2)[C@H](C)[C@@H](O[C@@H]2O[C@H](C)C[C@H](N(C)C)[C@H]2O)[C@](C)(O)C[C@@H](C)CN(CCCNC(=O)Nc2cccc(Cl)c2)[C@H](C)[C@@H](O)[C@]1(C)O`, the IC50 came to 455 nM in assay [1], 187 nM in assay [2] and 118 nM in assay [3].

`CCOC(=O)c1ccc(NC(=S)NCCCN2C[C@H](C)C[C@@](C)(O)[C@H](O[C@@H]3O[C@H](C)C[C@H](N(C)C)[C@H]3O)[C@@H](C)[C@H](O[C@H]3C[C@@](C)(OC)[C@@H](O)[C@H](C)O3)[C@@H](C)C(=O)O[C@H](CC)[C@@](C)(O)[C@H](O)[C@H]2C)cc1`: the IC50 in assay [1] came to 121 nM; in assay [2], 70.9 nM; in assay [3] it was 107 nM.

Turning to `CC[C@H]1OC(=O)[C@H](C)[C@@H](O[C@H]2C[C@@](C)(OC)[C@@H](O)[C@H](C)O2)[C@H](C)[C@@H](O[C@@H]2O[C@H](C)C[C@H](N(C)C)[C@H]2O)[C@](C)(O)C[C@@H](C)CN(CCCNC(=S)NCc2ccco2)[C@H](C)[C@@H](O)[C@]1(C)O`, the IC50 in assay [1] was determined as 329 nM; in assay [2], 449 nM; in assay [3], 240 nM.

Regarding `CC[C@H]1OC(=O)[C@H](C)[C@@H](O[C@H]2C[C@@](C)(OC)[C@@H](O)[C@H](C)O2)[C@H](C)[C@@H](O[C@@H]2O[C@H](C)C[C@H](N(C)C)[C@H]2O)[C@](C)(O)C[C@@H](C)CN(CCCNC(=O)Nc2cccc(C(F)(F)F)c2)[C@H](C)[C@@H](O)[C@]1(C)O`, the IC50 in assay [1] was found to be 257 nM; in assay [2], 135 nM; in assay [3] it was 72.8 nM.

In the case of `CC[C@H]1OC(=O)[C@H](C)[C@@H](O[C@H]2C[C@@](C)(OC)[C@@H](O)[C@H](C)O2)[C@H](C)[C@@H](O[C@@H]2O[C@H](C)C[C@H](N(C)C)[C@H]2O)[C@](C)(O)C[C@@H](C)CN(CCCNC(=S)NCCN2CCCCC2)[C@H](C)[C@@H](O)[C@]1(C)O`, the IC50 in assay [1] worked out at 9290 nM; in assay [2], 3300 nM; in assay [3], 3030 nM.

Consider `CC[C@H]1OC(=O)[C@H](C)[C@@H](O[C@H]2C[C@@](C)(OC)[C@@H](O)[C@H](C)O2)[C@H](C)[C@@H](O[C@@H]2O[C@H](C)C[C@H](N(C)C)[C@H]2O)[C@](C)(O)C[C@@H](C)CN(CCCNC(=S)Nc2ccc(F)c(F)c2F)[C@H](C)[C@@H](O)[C@]1(C)O`, for which the IC50 in assay [1] is 449 nM; in assay [2], 165 nM; in assay [3] it was 73.7 nM.

For the compound `CC[C@H]1OC(=O)[C@H](C)[C@@H](O[C@H]2C[C@@](C)(OC)[C@@H](O)[C@H](C)O2)[C@H](C)[C@@H](O[C@@H]2O[C@H](C)C[C@H](N(C)C)[C@H]2O)[C@](C)(O)C[C@@H](C)CN(CCCNC(=S)NCCN2CCOCC2)[C@H](C)[C@@H](O)[C@]1(C)O`, the IC50 in assay [1] was found to be 12400 nM; in assay [2], 2090 nM; in assay [3], 3320 nM.

With `CC[C@H]1OC(=O)[C@H](C)[C@@H](O[C@H]2C[C@@](C)(OC)[C@@H](O)[C@H](C)O2)[C@H](C)[C@@H](O[C@@H]2O[C@H](C)C[C@H](N(C)C)[C@H]2O)[C@](C)(O)C[C@@H](C)CN(CCCNC(=S)NCCCSC)[C@H](C)[C@@H](O)[C@]1(C)O`, the IC50 in assay [1] came out at 898 nM; in assay [2] it was 202 nM; in assay [3], 354 nM.

As to `CC[C@H]1OC(=O)[C@H](C)[C@@H](O[C@H]2C[C@@](C)(OC)[C@@H](O)[C@H](C)O2)[C@H](C)[C@@H](O[C@@H]2O[C@H](C)C[C@H](N(C)C)[C@H]2O)[C@](C)(O)C[C@@H](C)CN(CCCNC(=S)Nc2ccc(C)cc2)[C@H](C)[C@@H](O)[C@]1(C)O`, the half-maximal inhibitory concentration (IC50) in assay [1] came to 330 nM; in assay [2], 71.3 nM; in assay [3], 164 nM.

As to `CCC(C)NC(=O)NCCCN1C[C@H](C)C[C@@](C)(O)[C@H](O[C@@H]2O[C@H](C)C[C@H](N(C)C)[C@H]2O)[C@@H](C)[C@H](O[C@H]2C[C@@](C)(OC)[C@@H](O)[C@H](C)O2)[C@@H](C)C(=O)O[C@H](CC)[C@@](C)(O)[C@H](O)[C@H]1C` (some centres not stated), the IC50 in assay [1] was 14000 nM; in assay [2], 489 nM; in assay [3], 1180 nM.

Take `CC[C@H]1OC(=O)[C@H](C)[C@@H](O[C@H]2C[C@@](C)(OC)[C@@H](O)[C@H](C)O2)[C@H](C)[C@@H](O[C@@H]2O[C@H](C)C[C@H](N(C)C)[C@H]2O)[C@](C)(O)C[C@@H](C)CN(CCCNC(=O)Nc2ccc(C)cc2C)[C@H](C)[C@@H](O)[C@]1(C)O`: the half-maximal inhibitory concentration (IC50) in assay [1] was found to be 470 nM; in assay [2], 179 nM; in assay [3], 232 nM.

For the compound `CC[C@H]1OC(=O)[C@H](C)[C@@H](O[C@H]2C[C@@](C)(OC)[C@@H](O)[C@H](C)O2)[C@H](C)[C@@H](O[C@@H]2O[C@H](C)C[C@H](N(C)C)[C@H]2O)[C@](C)(O)C[C@@H](C)CN(CCCNC(=S)Nc2ccc([N+](=O)[O-])cc2)[C@H](C)[C@@H](O)[C@]1(C)O`, the IC50 in assay [1] worked out at 103 nM; in assay [2], 37.1 nM; in assay [3] it was 51.3 nM.
